Structures are written as SMILES. Where two headings read alike, the source gives them in different places.

Among the data in patent US10548321B2 (priority 2009, dated 2020) are Observed efficacy values, retold here.

The experiment relates to Pyricularia oryzae. The class given is cell-based. The following applies: single active, absorption at 405 nm 7 days after inoculation, 18° C.

Where the note is “1 ppm”, `CC1(C)C(C=C(Cl)Cl)C1C(=O)OC(C#N)c1cccc(Oc2ccccc2)c1` (stereo not drawn) [alpha-Cypermethrin, alpha-cypermethrin] gave an Observed efficacy of 1%.
In the case of `COC(=O)N(OC)c1ccccc1COc1ccn(-c2ccc(Cl)cc2)n1` [Pyraclostrobin, pyraclostrobin], for the setting “0.004 ppm”, the Observed efficacy was 23%.
